Reference: EP2582674B1 (Cymabay Therapeutics, Inc., priority 2010, dated 2011)

Biological target: T1, human GPR120 (Homo sapiens, UniProt Q5NUL3)
T1 construct: host or cells: HEK293 cells co-expressing Gqi5
T1 sequence (Q5NUL3 1-361): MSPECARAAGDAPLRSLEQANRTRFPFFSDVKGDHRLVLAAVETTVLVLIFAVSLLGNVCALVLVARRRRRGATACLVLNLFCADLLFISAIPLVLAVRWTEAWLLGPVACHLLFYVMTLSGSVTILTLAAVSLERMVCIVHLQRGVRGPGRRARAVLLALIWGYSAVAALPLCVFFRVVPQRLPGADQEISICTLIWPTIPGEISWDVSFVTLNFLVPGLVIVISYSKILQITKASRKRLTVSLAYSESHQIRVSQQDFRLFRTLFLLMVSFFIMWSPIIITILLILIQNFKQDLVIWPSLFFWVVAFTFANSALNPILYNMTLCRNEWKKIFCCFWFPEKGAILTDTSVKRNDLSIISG
Test: Intracellular Ca2+ assay in human GPR120 stable cell line (FLIPR Calcium 4 dye, Flexstation)
Format: cell-based
Settings: for activity at 2.5 µM: HEK293, % activity at 2.5 µM compared to the maximal activity of the compound of Example 25 at 2.5 µM (=100%), read-out: % Activity (Ex. 25 Reference Compound); for activity at 2.5 µM / activity at 5 µM: HEK293 cells co-expressing Gqi5; for EC50: eight concentrations from 0.00001 to 20 µM, changes (Max-Min) of fluorescence intensity; for activity at 5 µM: HEK293, % activity at 5 µM compared to the maximal activity of GW9508 at 6.7 µM (=100%), read-out: %Activity (GW9508 Reference Compound)
Experimental: Human GPR120 stable cell line was purchased from Multispan Inc (26219 Eden Landing Road, Hayward, CA94545). This GPR120 cell line was generated in HEK293 cells co-expressing Gqi5. In this cell line, the Flag epitope tag (DYKDDDDK) was fused to the amino terminus of human GPR120 protein.
The concentration of intracellular Ca^2+ was measured as described below. Human GPR120 cells were plated in 96 well plates (Poly-D-Lysine coated black/clear Plate, Greiner Bio-One) at 70,000 cells per well and cultured overnight in conditions of 37°C and 5% CO2. A Ca^2+ assay dye stock solution was prepared by adding 10 mL of assay buffer (HBSS/20mM HEPES, pH 7.4) to FLIPR Calcium 4 Assay Bulk Kit (Molecular Devices). The 10 mL of Ca^2+ assay dye solution was prepared by further diluting 0.5 mL of Ca^2+ assay dye stock solution with 10 mL of assay buffer. The medium of the cells was removed and immediately 100 µL of the Ca^2+ assay dye solution was dispensed into each well followed by incubation at 37°C and 5% CO2 for 50 minutes to incorporate the Ca^2+ dye into the cells. The cell plate was then placed in the Flexstation (Molecular Devices) for 20 minutes at 37°C. Compounds were dissolved in 100% DMSO and diluted to desired concentrations with assay buffer and placed in the Flexstation simultaneously with the cell plate for 20 minute incubation at 37°C prior to reading. Fluorescence intensity was measured immediately following compound addition (25 µL/well) on the Flexstation at an excitation wavelength of 485 nm and an emission wavelength of 525 with 515 nm auto cutoff. The resulting increase in fluorescence intensities corresponds to increases in intracellular Ca^2+ levels.
Compounds were dissolved in 100% DMSO to a concentration of 20 mM to provide stock solutions. To determine activity against human GPR120, compounds were added with human GPR120 stably expressing cells (described above), at eight desired concentrations ranging from 0.00001 to 20 µM, in 96 well plates and fluorescence intensities were measured for 90 seconds with 2-second intervals. An EC50 value (concentration of the GPR120 agonist where 50% of the agonist's maximal activity is observed) was calculated using the changes (Max-Min) of fluorescence intensity.
To determine percent activity for a tested compound, the fluorescence intensity value obtained at a particular concentration were compared to the maximal fluorescence intensity value obtained for reference compound GW9508 (4-[[(3-phenoxyphenyl)methyl]amino]benzene propanoic acid; British Journal of Pharmacology 2006 148, 619-628) or the compound of Example 25. When GW9508 was used as the reference compound, the maximal activity of GW9508 at 6.7µM was designated as 100% activity. When the compound of Example 25 was used as the reference compound, the maximal activity of the compound of Example 25 at 2.5 µM was designated as 100% activity. Typically, the GW9508 activity reached a maximum at a concentration of approximately 6.7 µM and typically the compound of Example 25 reached a maximum activity at approximately 2.5µM. […]

activity at 2.5 µM [%] | EC50 [µM] | activity at 5 µM [%] | SMILES
103 | 1 to 10 |  | CC1(C)Cc2cc(F)cc(COc3ccc(CC(=O)O)cc3)c2O1 [Example 133, 2-(4-((5-fluoro-2,2-dimethyl-2,3-dihydrobenzofuran-7-yl)methoxy)phenyl)acetic acid]
 |  | 130 | CC(Cc1cc(F)c(OCc2cc(F)cc3c2OC(C)(C)C3)c(F)c1)C(=O)O (centres unmarked) [Example 18, 3-(3,5-difluoro-4-((5-fluoro-2,2-dimethyl-2,3-dihydrobenzofuran-7-yl)methoxy)phenyl)-2-methylpropanoic acid]
143 |  |  | CC1(C)Cc2cc(Cl)cc(COc3ccc(CCC(=O)O)c(F)c3)c2O1 [Example 53, 3-(4-((5-chloro-2,2-dimethyl-2,3-dihydrobenzofuran-7-yl)methoxy)-2-fluorophenyl)-propanoic acid]
141 | 1 to 10 |  | CC(Cc1cc(F)c(OCc2c(F)c(F)cc3c2OC(C)(C)C3)c(F)c1)C(=O)O (centres unmarked) [Example 42, 3-(4-((5,6-difluoro-2,2-dimethyl-2,3-dihydrobenzofuran-7-yl)methoxy)-3,5-difluorophenyl)-2-methylpropanoic acid]
 | ≤ 1 |  | CC(CCc1ccc(OCc2cc(Cl)cc3c2OC(C)(C)C3)cc1)C(=O)O (centres unmarked) [Example 172, 4-(4-((5-chloro-2,2-dimethyl-2,3-dihydrobenzofuran-7-yl)methoxy)phenyl)-2-methylbutanoic acid]
42.7 |  |  | CC(C)C(CC(=O)O)c1ccc(OCc2cc(Cl)cc3c2OC(C)(C)C3)cc1 (centres unmarked) [Example 266, 3-(4-((5-chloro-2,2-dimethyl-2,3-dihydrobenzofuran-7-yl)methoxy)phenyl)-4-methylpentanoic acid]
3.85 |  |  | CC(Cc1ccc(OCc2cc(Cl)cc3c2OC(C)(C)C3=O)c(C(F)(F)F)c1)C(=O)O (centres unmarked) [Example 79, 3-(4-((5-chloro-2,2-dimethyl-3-oxo-2,3-dihydrobenzofuran-7-yl)methoxy)-3-(trifluoromethyl)phenyl)-2-methylpropanoic acid]
79.6 | > 10 |  | CC(Cc1ccc(OCc2cc(F)cc3c2OCOC3)cc1)C(=O)O (centres unmarked) [Example 45, 3-(4-((6-fluoro-4H-benzo[d][1,3]dioxin-8-yl)methoxy)phenyl)-2-methylpropanoic acid]
141 |  |  | Cc1c(CCC(=O)O)ccc(OCc2cc(Cl)cc3c2CC(C)(C)O3)c1C [Example 267, 3-(4-((6-chloro-2,2-dimethyl-2,3-dihydrobenzofuran-4-yl)methoxy)-2,3-dimethylphenyl)propanoic acid]
 |  | 147 | Cc1cc(CC(C)C(=O)O)ccc1OCc1cc(F)cc2c1OC(C)(C)C2 (centres unmarked) [Example 6, 3-(4-((5-fluoro-2,2-dimethyl-2,3-dihydrobenzofuran-7-yl)methoxy)-3-methylphenyl)-2-methylpropanoic acid]
144 |  |  | CCc1c(CCC(=O)O)ccc(OCc2cc(F)cc3c2OC(C)(C)C3)c1F [Example 216, 3-(2-ethyl-3-fluoro-4-((5-fluoro-2,2-dimethyl-2,3-dihydrobenzofuran-7-yl)methoxy)phenyl)propanoic acid]
 | 1 to 10 |  | CC(CC(=O)O)Cc1ccc(OCc2cc(Cl)cc3c2OC(C)(C)C3)cc1 (centres unmarked) [Example 183, 4-(4-((5-chloro-2,2-dimethyl-2,3-dihydrobenzofuran-7-yl)methoxy)phenyl)-3-methylbutanoic acid]
 |  | 126 | CC1(C)Cc2c(COc3c(F)cc(C4CC4C(=O)O)cc3F)cccc2O1 (centres unmarked) [Example 22, 2-(4-((2,2-dimethyl-2,3-dihydrobenzofuran-4-yl)methoxy)-3,5-difluorophenyl) cyclopropanecarboxylic acid]
154 |  |  | CC(Cc1ccc(OCc2cc(F)cc3c2OC2(CCCC2)C3)cc1)C(=O)O (centres unmarked) [Example 162, 3-(4-((5-fluoro-3H-spiro[benzofuran-2,1'-cyclopentane]-7-yl)methoxy)phenyl)-2-methylpropanoic acid]
